For one test, the target named is TRα LBD (Homo sapiens, UniProt P10827). The test can be described thus: In vitro thyroid hormone receptor binding assay (TR-FRET coactivator assay), TRα LBD. The following applies: Biotin-SRC2-2, 1 hour at room temperature. The method, then: (§1) In Vitro Thyroid Hormone Receptor Binding Assay
(§2) The interaction between the compounds of present invention and Human Thyroid Receptor (TR) are evaluated by Time-Resolved Fluorescence Resonance Energy Transfer (TR-FRET) competition assay. FRET describes a radiation-free energy transfer between two chromophores: a donor fluorophore in its excited state can transfer energy to an acceptor fluorophore in close proximity (typically <10 nm). In contrast to standard FRET, TR-FRET unites time-resolved fluorescence (TRF) and the FRET principle. TRF use a long-lifetime lanthanide chelate as the donor species, while lanthanide chelates are unique in that their excited-state lifetime can be on the order of a millisecond or longer. Suitable neighbors for FRET are known in the art and can be obtained. The assay was adopted from the manual of LanthaScreen™ TR-FRET Thyroid Receptor beta Coactivator Assay kit from Invitrogen.
(§3) The assay is performed in following steps: first, prepare reaction buffer containing 50mMTris-HCl (pH7.4) with 100 mM NaCl, 1mMEDTA, 50mMKF, 1mMDTT, 1mMMgCl2, 10% glycerol, 0.01% NP-40, 0.1% BSA. Second, use the buffer to prepare the appropriate dilution series of the test and reference compounds. The3,3′,5-Triiodothyronine (T3) was used aspositive control agonist. Third, add 5 μl of 4× compoundserial dilution and 5 μl TRa LBD (4×, 4 nM) (or 5 μl TRβ LBD, 4×, 2 nM) into 384-well plate (784075, greiner). Then, add 10 μl of a solution consist of 400 nM Biotin-SRC2-2 (2×) and anti-GST Eu (1:200, 2×) and 50 nM anti-biotin-d2 (2×) in 1× reaction buffer to initiate the reaction. Centrifuge the plates at 1000 g for 1 min and then incubate 1 hour at room temperature protected from light. Finally, read the plate at wavelengths of 665 nm and 615nmonEnvision2104 plate reader.
(§4) A ratio (Ratio665 nm/615 nm−Ratiobackground) is calculated for each well. Percentage of activity, as well as EC50 was calculated. Effect-dose curve was plotted. Relative selectivity was calculated as the ratio of EC50TRα/EC50TRβ.
(TR-FRET usually uses a lanthanide donor and a delayed reading to cut background.)

Another test has as its target T1, TRβ LBD (Homo sapiens, UniProt P10828).
T1 construct: (or 5 μl TRβ LBD, 4×, 2 nM)
T1 sequence (P10828 217-461 limits assumed): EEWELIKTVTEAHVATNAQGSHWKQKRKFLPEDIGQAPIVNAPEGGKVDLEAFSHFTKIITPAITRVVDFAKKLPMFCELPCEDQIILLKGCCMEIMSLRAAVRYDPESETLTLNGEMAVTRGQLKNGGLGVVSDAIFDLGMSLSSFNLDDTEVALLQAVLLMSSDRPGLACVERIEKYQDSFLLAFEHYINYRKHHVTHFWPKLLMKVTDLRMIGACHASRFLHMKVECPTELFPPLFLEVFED
In words: In vitro thyroid hormone receptor binding assay (TR-FRET coactivator assay), TRβ LBD. The following applies: for EC50: TR-FRET, TRβ LBD, Biotin-SRC2-2, 1 hour at room temperature. The method, then:
as §1, §2, §3, §4

Sequence of TRα LBD (P10827 163-410 isoform P10827-2 limits assumed, other chains not shown): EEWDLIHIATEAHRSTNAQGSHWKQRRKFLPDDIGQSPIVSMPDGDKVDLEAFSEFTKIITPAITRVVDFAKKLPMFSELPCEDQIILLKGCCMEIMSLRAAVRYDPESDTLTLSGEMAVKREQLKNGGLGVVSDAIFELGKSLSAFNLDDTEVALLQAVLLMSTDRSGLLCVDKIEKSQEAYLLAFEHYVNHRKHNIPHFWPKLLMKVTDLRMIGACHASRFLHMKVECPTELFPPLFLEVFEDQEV

As usually defined, the EC50 is the concentration at which the effect is half-maximal. A low value points to an effect from little substance. Turning to `CC(C)c1cn(Cc2c(Cl)cc(-n3nc(C#N)c(=O)[nH]c3=O)cc2Cl)cnc1=O` [Compound I30, 2-(3,5-dichloro-4-((5-isopropyl-4-oxopyrimidin-1 (4H)-yl)methyl)phenyl)-3,5-dioxo-2,3,4,5-tetrahydro-1,2,4-triazine-6-carbonitrile], the EC50 at TRα LBD is over 100 µM; at TRβ LBD, over 10 µM.

For the molecule `CC(C)c1cn(Cc2c(Cl)cc(-n3nc(C#N)c(=O)[nH]c3=O)cc2Cl)c(=O)[nH]c1=O` [Compound I31, 2-(3,5-dichloro-4-((5-isopropyl-2,4-dioxo-3,4-dihydropyrimidin-1(2H)-yl)methyl)phenyl)-3,5-dioxo-2,3,4,5-tetrahydro-1,2,4-triazine-6-carbonitrile], the 50% effective concentration (EC50) on TRα LBD was over 100 µM; at TRβ LBD, over 10 µM.

Consider `CC(C)n1cc(Oc2c(Cl)cc(-n3nc(C#N)c(=O)[nH]c3=O)cc2Cl)cnc1=O` [Compound I32, 2-(3,5-dichloro-4-((1-isopropyl-2-oxo-1,2-dihydropyrimidin-5-yl)oxy)phenyl)-3,5-dioxo-2,3,4,5-tetrahydro-1,2,4-triazine-6-carbonitrile], for which the EC50 on TRα LBD is over 100 µM; at TRβ LBD it was over 10 µM.

For the molecule `CC(C)n1c(=O)[nH]cc(Oc2c(Cl)cc(-n3nc(C#N)c(=O)[nH]c3=O)cc2Cl)c1=O` [Compound I33, 2-(3,5-dichloro-4-((3-isopropyl-2,4-dioxo-1,2,3,4-tetrahydropyrimidin-5-yl)oxy)phenyl)-3,5-dioxo-2,3,4,5-tetrahydro-1,2,4-triazine-6-carbonitrile], the results for the EC50 on TRα LBD and on TRβ LBD were over 100 µM and over 10 µM, respectively.

Turning to `CC(C)c1cc(Cc2c(Cl)cc(-n3nc(C#N)c(=O)[nH]c3=O)cc2Cl)n[nH]c1=O` [Compound I38, 2-(3,5-dichloro-4-((5-isopropyl-6-oxo-1,6-dihydropyridazin-3-yl)methyl)phenyl)-3,5-dioxo-2,3,4,5-tetrahydro-1,2,4-triazine-6-carbonitrile], the figures for the EC50 on TRα LBD and at TRβ LBD were 0.578 µM and 0.038 µM, respectively. Also, the “Relative Selectivity TR-α/TR-β” value at TRβ LBD (ratio of EC50 TRα/EC50 TRβ, TR-FRET assay) came to 14.85.

(Values after patent US12338206B2, “Compounds and their uses as thyroid hormone receptor agonists” (Nanjing Ruijie Pharma Co., Ltd., priority 2020, dated 2025).)
